Experimental findings from ChEMBL document CHEMBL1201862, “PubChem BioAssay data set” (2004) are described below.

Among the test systems are DMS-114; RXF 631; DMS-273; SNB-78; LXFL 529; XF498; DLD-1; KM-20L2; HOP-18.
What all share (test): DTP human tumour cell line panel, 48 h

Each structure is given as a SMILES string.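 All cell lines were grown in 96-well plates and treated with compound for 48 hours. GI50 is the concentration that inhibits growth by half.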 Activity calls are given as the source filed them. Rule as the data show it: active = GI50 up to about 1.1 µM and inactive = higher.

As a reminder, the GI50 is the concentration giving 50% growth inhibition. As for `C[n+]1c2ccccc2c(NC(CCC(N)=O)C(=O)O)c2ccccc21` (centres undefined), the GI50 in the test with DMS-114, in the test with RXF 631, in the test on DMS-273, with SNB-78, with LXFL 529 and with XF498 was > 100 µM (inactive) throughout. In addition, the GI50 with DLD-1, in the test with KM-20L2 and in the test on HOP-18 was > 100 µM (inactive) each time.

As to `N=C(N)NS(=O)(=O)c1ccc(NC(=O)c2cccc3c(O)c4ccccc4nc23)cc1`, the GI50 with DMS-114 is > 100 µM (inactive); in the test with DMS-273 it was > 100 µM (inactive); with SNB-78 it was 42.1 µM (inactive); in the test with LXFL 529, > 100 µM (inactive); in the test on XF498 it was > 100 µM (inactive); in the test with DLD-1 it was > 100 µM (inactive). Further, the GI50 in the test on KM-20L2 was > 100 µM (inactive); in the test on HOP-18 it was > 86.5 µM (inactive).

As for `CCOC(=O)Cn1c2ccccc2c(=O)c2cc(C)c(C)c(C#N)c21`, the GI50 is > 100 µM (inactive) with RXF 631; > 100 µM (inactive) with DMS-273; > 100 µM (inactive) with SNB-78; > 100 µM (inactive) in the test with LXFL 529; 30.2 µM (inactive) with XF498; > 100 µM (inactive) with DLD-1. In addition, the GI50 in the test with KM-20L2 and with HOP-18 was > 100 µM (inactive) in each case.

As to `Nc1c2ccccc2nc2nccnc12`, the GI50 in the test with DMS-114, with DMS-273, in the test with SNB-78, with XF498, with DLD-1 and in the test on KM-20L2 was > 100 µM (inactive) in each case. In the test on HOP-18, the GI50 is > 100 µM (inactive).

`O=c1/c(=C/c2ccccc2[N+](=O)[O-])sc2nc3ccccc3n12`: the GI50 in the test with DMS-114 is 16.3 µM (inactive); with RXF 631 it was 17.5 µM (inactive); with DMS-273 it was 20 µM (inactive); with SNB-78, 23.1 µM (inactive); in the test with LXFL 529, 33.4 µM (inactive); in the test on XF498, 16 µM (inactive). In addition, the GI50 with DLD-1 was 27.7 µM (inactive); in the test with KM-20L2, > 100 µM (inactive); in the test with HOP-18, 44.6 µM (inactive).

`CC(=O)OCC1OC(n2c(=O)n(-c3ccccc3)c(=O)c3cc(Br)cc(Br)c32)C(OC(C)=O)C(OC(C)=O)C1OC(C)=O` (centres undefined): the GI50 with DMS-114, with RXF 631, with DMS-273, in the test with SNB-78, with LXFL 529 and with XF498 was > 100 µM (inactive) in each case. The GI50 was > 100 µM (inactive) in the test on DLD-1, 8.95 µM (inactive) in the test on KM-20L2 and > 100 µM (inactive) in the test on HOP-18.

Regarding `Cc1cc2c(cc1C)[n+]([O-])c(C(=O)C/C(=N/NC(=O)c1ccccc1O)C(=O)Nc1ccccc1C(C)C)c(C)[n+]2[O-]`, the GI50 is 98.6 µM (inactive) in the test with DMS-114; > 100 µM (inactive) with RXF 631; 99.5 µM (inactive) in the test with DMS-273; > 100 µM (inactive) in the test with SNB-78; 63 µM (inactive) in the test with LXFL 529; 53.7 µM (inactive) in the test on DLD-1. Moreover, the GI50 with KM-20L2 was > 100 µM (inactive); with HOP-18, 89.5 µM (inactive).

Turning to `Cc1ccccc1C1OC(=O)c2ccc3ccccc3c21` (centres undefined), the GI50 in the test on DMS-114 was 4.67 µM (inactive); with RXF 631 it was 0.607 µM (active); in the test on DMS-273, 3.5 µM (inactive); in the test with SNB-78, 6.5 µM (inactive); in the test with LXFL 529 it was 3.38 µM (inactive); with XF498, 2.31 µM (inactive). Besides, the figures for the GI50 in the test on DLD-1, with KM-20L2 and in the test with HOP-18 were 3.37 µM (inactive), 4.16 µM (inactive) and 7.64 µM (inactive), respectively.

In the case of `COc1ccc(-c2oc3cc(O)c(OC)c(O)c3c(=O)c2OC2OC(CO)C(O)C(O)C2O)cc1` (centres undefined), the GI50 in the test on DMS-114, with DMS-273, in the test with SNB-78, in the test on LXFL 529, in the test with DLD-1 and in the test on KM-20L2 was > 100 µM (inactive) in each case. Besides, the GI50 in the test with HOP-18 is 50.4 µM (inactive).

`CSc1ccc(N2C(=O)C3c4[nH]c5ccccc5c4C4CCC(C(C)(C)C)CC4C3C2=O)cc1` (centres undefined): the GI50 in the test on DMS-114 was 15.2 µM (inactive); in the test with DMS-273, 10.6 µM (inactive); with SNB-78 it was 7.94 µM (inactive); in the test on LXFL 529, 18.5 µM (inactive); in the test on XF498, 27.7 µM (inactive); in the test on DLD-1, 52.4 µM (inactive). Further, the GI50 was 48.4 µM (inactive) in the test on KM-20L2 and 22.8 µM (inactive) in the test on HOP-18.

Consider `COc1cc(/C=C(\C#N)c2ccccc2)cc(OC)c1`, for which the GI50 in the test on DMS-114 was 27.5 µM (inactive); with SNB-78, 82.4 µM (inactive); in the test with LXFL 529, 43.4 µM (inactive); in the test on XF498 it was 48 µM (inactive); in the test on DLD-1, 76.9 µM (inactive); in the test on KM-20L2, 41.1 µM (inactive).

For `CS/C(c1ccccc1)=[N+](/C)[O-]`, the GI50 in the test on RXF 631 is > 100 µM (inactive); with SNB-78 it was > 100 µM (inactive); with LXFL 529, > 100 µM (inactive); with XF498, > 100 µM (inactive); in the test on DLD-1, > 61.5 µM (inactive); in the test with KM-20L2, > 100 µM (inactive). The GI50 with HOP-18 is > 100 µM (inactive).

Take `C/C(CC(=O)Nc1ccc(NC(=O)/C(C)=N/NS(=O)(=O)c2ccc(C)cc2)cc1)=N\NS(=O)(=O)c1ccc(C)cc1`: the GI50 in the test with DMS-114, with SNB-78, in the test with LXFL 529, in the test on DLD-1 and with KM-20L2 was > 100 µM (inactive) throughout.

On to `Brc1cc2c(cc1Br)CN(c1ccccc1)C2`, for which the GI50 was > 100 µM (inactive) in the test with DMS-114; > 100 µM (inactive) in the test with DMS-273; > 100 µM (inactive) in the test on SNB-78; > 100 µM (inactive) in the test with LXFL 529; > 100 µM (inactive) with XF498; 68.2 µM (inactive) in the test on DLD-1. In addition, in the test on KM-20L2, the GI50 was > 100 µM (inactive).

For the compound `CCc1cc2c(O)c(c1)Cc1cc(CC)cc(c1O)Cc1cc(CC)cc(c1O)Cc1cc(CC)cc(c1O)Cc1cc(CC)cc(c1O)Cc1cc(CC)cc(c1O)Cc1cc(CC)cc(c1O)C2`, the GI50 is > 100 µM (inactive) with DMS-114; > 100 µM (inactive) in the test on DMS-273; 55 µM (inactive) in the test on SNB-78; > 100 µM (inactive) with LXFL 529; 48.2 µM (inactive) in the test with XF498; > 100 µM (inactive) in the test on DLD-1. Also, the GI50 with KM-20L2 is > 100 µM (inactive).

Regarding `NC(CNc1ccc(O)cc1)C(=O)O` (centres undefined), the GI50 in the test on DMS-114 is > 100 µM (inactive); with RXF 631 it was 92.3 µM (inactive); in the test with DMS-273 it was > 100 µM (inactive); with SNB-78, > 100 µM (inactive); in the test with LXFL 529, > 100 µM (inactive); in the test on XF498 it was 13.5 µM (inactive). The GI50 with DLD-1 was > 100 µM (inactive); in the test with KM-20L2, 63 µM (inactive); in the test on HOP-18, > 100 µM (inactive).

With `N=C(N)NS(=O)(=O)c1ccc(NC(=O)c2cccc3c(Nc4ccc(S(N)(=O)=O)cc4)c4ccccc4nc23)cc1`, the GI50 in the test with DMS-114, in the test with DMS-273, in the test with SNB-78, with LXFL 529, with XF498 and in the test on DLD-1 was > 100 µM (inactive) in each case. Moreover, the GI50 with KM-20L2 and in the test with HOP-18 was > 100 µM (inactive) in each case.

As to `O=S1OC(c2ccccc2)(c2ccccc2)C(c2ccccc2)(c2ccccc2)O1`, the GI50 was 36.8 µM (inactive) in the test with DMS-114; > 100 µM (inactive) in the test with RXF 631; > 100 µM (inactive) with DMS-273; > 100 µM (inactive) in the test on SNB-78; 7.45 µM (inactive) with LXFL 529; 56.2 µM (inactive) with XF498. Besides, the GI50 in the test with DLD-1 is > 73.8 µM (inactive); in the test with KM-20L2, 18 µM (inactive); with HOP-18, > 100 µM (inactive).

With `CCc1nc2c([nH]1)C(=O)c1ccccc1C2=O`, the GI50 is 21.2 µM (inactive) in the test on DMS-114; 37.1 µM (inactive) with DMS-273; 53.7 µM (inactive) in the test on SNB-78; 15.9 µM (inactive) with XF498; 39.1 µM (inactive) in the test on DLD-1.

For the compound `CCCCCCCC(=O)OCC(C[As](=O)(O)O)OC(=O)CCCCCCC` (centres undefined), the GI50 in the test on DMS-114 is 16.4 µM (inactive); in the test with DMS-273, 14.1 µM (inactive); in the test with SNB-78, 18.7 µM (inactive); with LXFL 529, 13.4 µM (inactive); in the test with DLD-1, 16.9 µM (inactive); in the test on KM-20L2 it was 16.7 µM (inactive). Moreover, in the test with HOP-18, the GI50 was 15.8 µM (inactive).

Regarding `Cc1ccc(Nc2cccc3c2C(=O)c2cccc(Nc4ccc(C)cc4S(=O)(=O)O)c2C3=O)c(S(=O)(=O)O)c1`, the GI50 with DMS-114, with RXF 631, with DMS-273, in the test on SNB-78, with LXFL 529 and in the test on DLD-1 was > 100 µM (inactive) each time. In addition, the GI50 in the test on KM-20L2 and in the test with HOP-18 was > 100 µM (inactive) in each case.

On to `Brc1ccc2c(C3CN[C@@H](c4c[nH]c5cc(Br)ccc45)CN3)c[nH]c2c1` (some centres undefined), for which the GI50 in the test on DMS-114 is 1.95 µM (inactive); with RXF 631, 2.67 µM (inactive); in the test on DMS-273, 2.26 µM (inactive); in the test on SNB-78 it was 10.4 µM (inactive); in the test on LXFL 529 it was 2.13 µM (inactive); with XF498, 6.84 µM (inactive). Moreover, the values for the GI50 with DLD-1, in the test on KM-20L2 and in the test with HOP-18 were 3.03 µM (inactive), 1.98 µM (inactive) and 11.9 µM (inactive), respectively.

Turning to `c1ccc(C2OC3(CCC[C@H]4C[C@H]43)O[C@H]2c2ccccc2)cc1` (some centres undefined), the GI50 with DMS-114 was 33.7 µM (inactive); in the test on RXF 631 it was 89.3 µM (inactive); in the test on DMS-273, 49.4 µM (inactive); in the test on SNB-78, 58.9 µM (inactive); with XF498, 22.7 µM (inactive); with DLD-1, 78.9 µM (inactive). In addition, the GI50 in the test with KM-20L2 is 30.8 µM (inactive).

On to `CC1C=CC(O)[C@]2(CO)CC3(CCC12)OCCO3` (some centres undefined), for which the GI50 in the test with DMS-114, with RXF 631, in the test with DMS-273, in the test on SNB-78, with LXFL 529 and with XF498 was > 100 µM (inactive) throughout. The GI50 in the test on DLD-1 and with KM-20L2 was > 100 µM (inactive) in each case.
